Source: ChEMBL document CHEMBL1153760, “Identification and structure-activity relationships of chromene-derived selective estrogen receptor modulators for treatment of postmenopausal symptoms” (J Med Chem, 2009)

How the values were obtained:
Rattus norvegicus = species on record: Rattus norvegicus; experiment: animal or person; type: functional; conditions: Uterus, 72 h, route oral
Estrogen receptor beta = Estrogen receptor beta (Homo sapiens, UniProt Q92731); experiment: Inhibition of fluormone ES2 binding to estrogen receptor beta after 1 hr by fluorescence polarization assay
Estrogen receptor [1] = biological target: T1, Estrogen receptor (Homo sapiens, UniProt P03372); experiment: Antagonist activity at estrogen receptor in human Ishikawa cells assessed as 17-beta-estradiol-induced alkaline phosphatase activity after 3 days by chemiluminescence assay; type: functional, cell-based
T1 sequence (P03372 whole entry): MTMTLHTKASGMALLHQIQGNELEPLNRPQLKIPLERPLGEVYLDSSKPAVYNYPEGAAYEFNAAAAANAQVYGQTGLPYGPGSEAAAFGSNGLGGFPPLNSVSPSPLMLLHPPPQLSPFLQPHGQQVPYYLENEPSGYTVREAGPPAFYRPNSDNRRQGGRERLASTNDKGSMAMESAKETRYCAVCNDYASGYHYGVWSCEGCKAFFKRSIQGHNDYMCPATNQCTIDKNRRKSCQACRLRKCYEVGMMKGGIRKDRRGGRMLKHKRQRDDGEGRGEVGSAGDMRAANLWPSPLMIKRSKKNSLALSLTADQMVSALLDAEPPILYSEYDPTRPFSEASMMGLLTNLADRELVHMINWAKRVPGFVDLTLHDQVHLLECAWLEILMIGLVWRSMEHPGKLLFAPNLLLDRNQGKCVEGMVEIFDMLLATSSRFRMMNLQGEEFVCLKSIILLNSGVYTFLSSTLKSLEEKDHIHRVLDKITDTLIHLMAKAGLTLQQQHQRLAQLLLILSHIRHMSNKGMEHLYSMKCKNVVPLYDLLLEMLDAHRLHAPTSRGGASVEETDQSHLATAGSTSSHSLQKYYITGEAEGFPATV

Estrogen receptor [2] = biological target: T1, Estrogen receptor; experiment: Displacement of radiolabeled estrogen from estrogen receptor alpha by scintillation counting

Sequence of Estrogen receptor beta (Q92731 whole entry): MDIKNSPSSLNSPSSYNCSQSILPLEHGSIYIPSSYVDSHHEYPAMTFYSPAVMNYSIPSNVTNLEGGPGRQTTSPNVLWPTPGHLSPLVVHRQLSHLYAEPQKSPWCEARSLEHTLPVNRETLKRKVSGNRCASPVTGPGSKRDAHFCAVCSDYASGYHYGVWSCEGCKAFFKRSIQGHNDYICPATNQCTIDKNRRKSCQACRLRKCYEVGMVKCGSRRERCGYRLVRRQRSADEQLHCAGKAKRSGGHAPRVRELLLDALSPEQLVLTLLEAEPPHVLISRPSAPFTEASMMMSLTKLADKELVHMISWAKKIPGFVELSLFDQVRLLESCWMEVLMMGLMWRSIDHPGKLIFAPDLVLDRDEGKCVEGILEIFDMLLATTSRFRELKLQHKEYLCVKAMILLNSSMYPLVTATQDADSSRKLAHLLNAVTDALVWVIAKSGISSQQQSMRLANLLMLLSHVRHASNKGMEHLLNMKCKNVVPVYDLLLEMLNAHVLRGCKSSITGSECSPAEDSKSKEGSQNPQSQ

Row | IC50 (Estrogen receptor beta) [nM] | IC50 (Estrogen receptor [1]) [nM] | IC50 (Estrogen receptor [2]) [nM] | Structure (SMILES) | inhibition in vivo at 1 mg/kg (Rattus norvegicus) [%]
1 | 250 | > 10000 | 120 | O=C(O)CCOc1ccc([C@H]2Oc3cc(O)ccc3C3=C2c2ccc(O)cc2OCC3)cc1 | 0
2 | 105 |  |  | CN(C)CCOc1ccc([C@H]2Oc3ccccc3C3=C2c2ccc(O)cc2OCC3)cc1 | 55
3 | 23 | 61 | 3.3 | CN(C)CCOc1ccc([C@H]2Oc3cc(O)ccc3C3=C2c2ccc(O)cc2OCC3)cc1 | 25
4 | 18.6 | > 10000 | 6.2 | O=C1CCC(=O)N1CCOc1ccc([C@@H]2Oc3cc(O)ccc3C3=C2c2ccc(O)cc2OCC3)cc1 | 0
5 | 31 | 161 | 5 | Oc1ccc2c(c1)OCCC1=C2[C@H](c2ccc(OCCN3CCCCCC3)cc2)Oc2cc(F)ccc21 | 33
6 | 13.4 |  |  | Oc1ccc2c(c1)O[C@@H](c1ccc(OCCN3CCCCCC3)cc1)C1=C2CCOc2cc(O)ccc21 | 50
7 | 63 | 25.9 | 6.3 | Oc1ccc2c(c1)O[C@@H](c1ccc(OCCN3CCCCC3)cc1)C1=C2CCOc2ccccc21 | 12
8 | > 1000 | > 10000 | > 1000 | CN1CCN(CCOc2cccc([C@H]3Oc4cc(O)ccc4C4=C3c3ccc(O)cc3OCC4)c2)CC1 | 
9 | 140 | 2670 | 85 | Oc1ccc2c(c1)O[C@H](c1ccc(OCCN3CCCCCC3)cc1)C1=C2CCOc2ccccc21 | 11
10 | 0.64 | > 10000 | 4.8 | O=C1CCC(=O)N1CCOc1ccc([C@H]2Oc3cc(O)ccc3C3=C2c2ccc(O)cc2OCC3)cc1 | 0
11 | 99 | 76 | 5.8 | Oc1ccc2c(c1)OCCC1=C2[C@@H](c2ccc(OCCN3CCCCC3)cc2)Oc2ccccc21 | 130
12 | 200 | > 10000 | 190 | Oc1ccc2c(c1)O[C@@H](c1cccc(OCCN3CCCCC3)c1)C1=C2CCOc2cc(O)ccc21 | 0
13 | 24 | 150 | 4.2 | Oc1ccc2c(c1)OCCC1=C2[C@H](c2ccc(OCCN3CCCCC3)cc2)Oc2ccccc21 | 20
14 | 20 | 287 | 5.4 | CC(C)N(CCOc1ccc([C@H]2Oc3cc(O)ccc3C3=C2c2ccc(O)cc2OCC3)cc1)C(C)C | 30
15 | 16 | > 10000 | 4.8 | COC(=O)COc1ccc(C2Oc3cc(O)ccc3C3=C2c2ccc(O)cc2OCC3)cc1 (stereo not drawn) | 0
16 | 30 | 158 | 11.1 | CN(C)CCOc1ccc([C@@H]2Oc3cc(O)ccc3C3=C2c2ccccc2OCC3)cc1 | 20

More lines, now with the values behind:

Row | Structure (SMILES) | IC50 (Estrogen receptor beta) [nM] | IC50 (Estrogen receptor [1]) [nM] | IC50 (Estrogen receptor [2]) [nM] | inhibition in vivo at 1 mg/kg (Rattus norvegicus) [%]
17 | COc1ccc2c(c1)O[C@@H](c1ccc(OCCN3CCCCC3)cc1)C1=C2CCOc2cc(OC)ccc21 | > 10000 | > 10000 | > 10000 | 7
18 | Oc1ccc2c(c1)O[C@H](c1cccc(OCCN3CCSCC3)c1)C1=C2CCOc2cc(O)ccc21 | > 1000 | > 10000 | > 1000 | 
19 | O=C1CCC(=O)N1CCCOc1ccc([C@H]2Oc3cc(O)ccc3C3=C2c2ccc(O)cc2OCC3)cc1 | 12.7 | > 10000 | 2.63 | 0
20 | O=C1CCC(=O)N1CCCOc1ccc([C@@H]2Oc3cc(O)ccc3C3=C2c2ccc(O)cc2OCC3)cc1 | 5.68 | > 10000 | 41 | 0
21 | COc1ccc2c(c1)OCCC1=C2[C@H](c2ccc(OCCN3CCCCC3)cc2)Oc2cc(O)ccc21 | 24 | 150 | 4.2 | 20
22 | Oc1ccc2c(c1)O[C@@H](c1ccc(OCCN3CCSCC3)cc1)C1=C2CCOc2cc(O)ccc21 | 390 | > 10000 | 111 | 0
23 | Oc1ccc2c(c1)O[C@H](c1ccc(OCCCN3CCCCC3)cc1)C1=C2CCOc2cc(O)ccc21 | 31 | 420 | 22 | 23
24 | O=C(O)CCOc1ccc([C@@H]2Oc3cc(O)ccc3C3=C2c2ccc(O)cc2OCC3)cc1 | 44 | > 10000 | 580 | 0
25 | Oc1ccc2c(c1)O[C@H](c1ccc(OCCN3CCOCC3)cc1)C1=C2CCOc2cc(O)ccc21 | 35 | 43 | 1.6 | 40
26 | Oc1ccc2c(c1)O[C@@H](c1ccc(OCCN3CCCCC3)cc1)C1=C2CCOc2cc(O)ccc21 | 16 | 32 | 3.4 | 88
27 | CN1CCN(CCOc2ccc([C@@H]3Oc4cc(O)ccc4C4=C3c3ccc(O)cc3OCC4)cc2)CC1 | 580 | > 10000 | 312 | 5
28 | OCCOc1ccc(C2Oc3cc(O)ccc3C3=C2c2ccc(O)cc2OCC3)cc1 (stereo not drawn) | 11 | > 10000 | 310 | 0
29 | CN1CCN(CCOc2cccc([C@@H]3Oc4cc(O)ccc4C4=C3c3ccc(O)cc3OCC4)c2)CC1 | > 1000 | > 10000 | > 1000 | 
30 | Oc1ccc2c(c1)OCCC1=C2[C@H](c2ccc(OCCN3CCCCCC3)cc2)Oc2ccccc21 | 22 | 68 | 4.5 | 28
31 | Oc1ccc2c(c1)O[C@H](c1cccc(OCCN3CCCCC3)c1)C1=C2CCOc2cc(O)ccc21 | 380 | > 10000 | 150 | 0
32 | Oc1ccc2c(c1)O[C@H](c1ccc(OCCN3CCCC3)cc1)C1=C2CCOc2cc(O)ccc21 | 14 | 10 | 1.2 | 10

Row | Structure (SMILES) | IC50 (Estrogen receptor beta) [nM] | IC50 (Estrogen receptor [1]) [nM] | IC50 (Estrogen receptor [2]) [nM] | inhibition in vivo at 1 mg/kg (Rattus norvegicus) [%]
33 | CN1CCN(CCOc2ccc([C@H]3Oc4cc(O)ccc4C4=C3c3ccc(O)cc3OCC4)cc2)CC1 | 86 | 90 | 8.7 | 30
34 | Oc1ccc2c(c1)O[C@H](c1ccc(OCCN3CCCCCC3)cc1)C1=C2CCOc2cc(O)ccc21 | 19 |  |  | 60
35 | Oc1ccc2c(c1)OC(c1ccc(OCCN3CCCCC3)cc1)C1=C2CCCOc2cc(O)ccc21 (single isomer, unassigned; (+)) | 77 | 121 | 23 | 33
36 | Oc1ccc2c(c1)O[C@@H](c1ccc(OCCN3CCOCC3)cc1)C1=C2CCOc2cc(O)ccc21 | 11 | > 10000 | 10 | 0
37 | Oc1ccc2c(c1)O[C@@H](c1ccc(OCCCN3CCCCC3)cc1)C1=C2CCOc2cc(O)ccc21 | 19 | 590 | 55 | 15
38 | CCN(CC)CCOc1ccc([C@H]2Oc3ccccc3C3=C2c2ccc(O)cc2OCC3)cc1 | 108 | 113 | 5 | 80
39 | Oc1ccc2c(c1)O[C@@H](c1ccc(OCCN3CCCC3)cc1)C1=C2CCOc2cc(O)ccc21 | 8.7 | 165 | 2.5 | 20
40 | Oc1ccc2c(c1)O[C@@H](c1cccc(OCCN3CCSCC3)c1)C1=C2CCOc2cc(O)ccc21 | > 1000 | > 10000 | > 1000 | 
41 | Oc1ccc2c(c1)OCCC1=C2[C@@H](c2ccc(OCCN3CCCCCC3)cc2)Oc2ccccc21 | 125 | 293 | 11 | 110
42 | COc1ccc2c(c1)O[C@@H](c1ccc(OCCN3CCCCC3)cc1)C1=C2CCOc2cc(O)ccc21 | 63 | 25.9 | 6.3 | 12
43 | Oc1ccc2c(c1)OCCC1=C2[C@@H](c2ccc(OCCN3CCCCCC3)cc2)Oc2cc(F)ccc21 | 66 | 81 | 3.3 | 22
44 | OCCCOc1ccc(C2Oc3cc(O)ccc3C3=C2c2ccc(O)cc2OCC3)cc1 (stereo not drawn) | 44 | > 10000 | 326 | 0
45 | CN(C)CCOc1ccc([C@H]2Oc3cc(O)ccc3C3=C2c2ccccc2OCC3)cc1 | 205 | 8990 | 180 | 23
46 | CCN(CC)CCOc1ccc([C@@H]2Oc3cc(F)ccc3C3=C2c2ccc(O)cc2OCC3)cc1 | 11 | 122 | 7 | 11
47 | Oc1ccc2c(c1)OC(c1ccc(OCCN3CCCCC3)cc1)C1=C2CCOc2cc(O)ccc21 (stereo not drawn) | 31 | 8 | 13 | 77
